Test results published in patent US5691328A, “Phosphoethanolamine conjugates of vitamin D compounds” (Clarion Pharmaceuticals Inc., priority 1996, dated 1997).
Read-outs that look alike come from different tables or passages of the source.

Legend:
[1] = tested on: MDA-MB-231 Human Breast Cancer Cell; test: in vitro MDA-MB-231 Human Breast Cancer Cell inhibition assay (sulforhodamine B); assay type: cell-based; conditions: at 100 μM; 48 hours; FIG. 1
Description: FIG. 1 is a graphical representation of results from an in vitro MDA-MB-231 Human Breast Cancer Cell inhibition assay of a compound of the invention, designated CPR 2005, in comparison with vitamin D3.
(§1) 1. Human tumor cell lines, obtainable from the American Type Culture Collection (ATCC):
a. MDA-MB-231 (ATCC HTB-26): an estrogen receptor negative human breast carcinoma cell line (attachment dependent); and
a. For cell line 1-a: Dulbecco's Modified Eagle's Medium (DMEM) plus 10% Fetal Bovine Serum (FBS); and
(§2) 3. Standard protocol for culturing cell lines: in T-75 or T-150 flasks; 37° C.; 95% air, 5% CO2; 100% humidity;
a. […]
(§3) h. Read absorbance at 562 nm using a standard 96-well microtiler plate reader. Absorbance readings are linear with dye concentrations below 1.8 absorbance units. To reduce absorbance, decrease wavelength at which measurements are taken;
(§4) single point reading: the higher the absorbance, the higher the […]; […]
(§5) initial control cell number (ICCN)--no test compound present in culture medium, end point was determined at the time of treatment;
(§6) final control cell number (FCCN)--no test compound present in culture medium, end point was determined at […] after treatment;
(§7) final cell number (FCN)--test compound present in culture medium, end point was determined at 48 hours after treatment; […]
(§8) FCN=A(test compound, 48 hours)-A(Background) [formula] where A is absorbance. […]

[2] = tested on: HT-29 Human Colon Cancer Cells; test: in vitro HT-29 Human Colon Cancer Cells inhibition assay (sulforhodamine B); assay type: cell-based; conditions: at concentrations above 30 μM; 48 hours; FIG. 2
Description: FIG. 2 is a graphical representation of results from an in vitro HT-29 Human Colon Cancer Cells inhibition assay of a compound of the invention, designated CPR 2005, in comparison with Vitamin D3.
as §1
b. HT-29 (ATCC HTB-38): a human colon caminoma cell line (attachment dependent).
b. For cell line 1-b: 1:1 DMEM and Ham's F-12 (DMEM/F12) plus 10% FBS.
as §2
a. […]
as §3, §4, §5, §6, §7, §8

[3] = tested on: PAM-212 Mouse Keratinocytes; test: in vitro PAM-212 Mouse Keratinocytes inhibition assay (anti-psoriasis); assay type: cell-based; conditions: at concentrations above 30 μM, 48 hours, FIG. 3
Description: FIG. 3 is a graphical representation of results from an in vitro PAM-212 Mouse Keratinocytes inhibition assay of a compound of the invention, designated CPR 2005, in comparison with vitamin D3.
Psoriasis is a chronic inflammatory dermatosis characterized, in part, by hyper-proliferation of keratinocytes and release of pro-inflammatory cytokines. Compounds that reduce hyperproliferation of keratinocytes in vitro are likely to have utility in the control of psoriasis.
1. Cell line: PAM-212 murine keratinocyte cell line isolated and cultivated from newborn BALB/c mice (see S. H. Yuspa et al., Cancer Research, Vol. 40, pp. 4694-4703, December, 1980) that appears to retain many characteristics of normal keratinocytes.
2. Culture medium: 1:1 DMEM and Ham's F-12 with 10% FBS.
3. Culture conditions are the same as those described in part 3 of the assay protocol for anti-tumor activity.
4. Methodology is the same as that described in part 4 of the assay protocol for anti-tumor activity, except that, with reference to part 4(b) of the assay protocol for anti-tumor activity, cell concentration in this case is adjusted to 1,000 cells per 100 μL (rather than 5,000 cells per 100 μL).
5. End point determination and analysis are as described in part 5 of the assay protocol for anti-tumor activity.

[4] = tested on: RAW 264.7 murine monocyte/macrophage line; test: Assay for Anti-inflammatory Activity by Inhibition of Macrophage Chemiluminescence (respiratory burst, PMA-stimulated mouse macrophages); assay type: cell-based
Description: The RAW 264.7 cell line (available from the ATCC under accession no. TIB 71) is a murine monocyte/macrophage line the cells of which show many of the differentiative functions of a macrophage. Like macrophages, the cells are capable of phagocytosis and undergo an oxidative burst (increased oxygen consumption) and production of oxygen radicals (e.g., superoxide) in response to appropriate signals. Agents that inhibit the activation of these cells in vitro, so as to inhibit the respiratory burst and corresponding production of oxygen radicals associated with the activation, are therefore inhibitors of macrophage activation and critical steps in inflammatory processes.
The respiratory burst and corresponding production of oxygen radicals that accompany macrophage activation can be measured in a variety of ways, including chemiluminescence based on the reaction of the oxygen radicals with luminol added to the culture medium (see M. A. Trush et at., 1978, "The Generation of Chemiluminescence by Phagocytic Cells." Methods in Enzymology 57: 462-494). Indeed, chemiluminescence generated from luminol in the culture medium of macrophage cell lines is recognized in the art as a marker of macrophage activation.
1. Cell line: Raw 264.7 (ATCC TIB-71, attachment dependent);
2. Culture medium: DMEM with 10% FBS;
as §2
a. Cell line is passaged when approximately 80% confluent; with trypsin (1 mg/ml) and EDTA ([…] in ca-MG free Hank's balanced salt solution); at a 1:4 to 1:5 split;
b. All procedures are performed aseptically in a class II biological safety cabinet using standard BL-2 containment procedures. In order to prevent genetic drift in stock cell lines, fresh cultures are prepared at approximately monthly intervals with cells thawed from liquid nitrogen storage.
a. After cell passage, count cells with a hemacytometer;
b. Adjust cell concentration to approximately 1,000,000 cells per mL;
c. Suspend cells in DMEM lacking phenol red and without FBS;
d. Pipette 1 mL of cell suspension into a standard luminometer cuvet (12×75), commercially obtainable from Analytical Luminescence Laboratories, San Diego, Calif., USA;
e. Add luminol to final concentration of 0.2 μM;
f. Add test compound dissolved in phosphate buffered saline (PBS), or in DMSO for the comparative compound, vitamin D3, for final concentration levels ranging from 0 to 30 μM;
g. Add 100 nanograms of phorbol myristate acetate (PMA); and
h. Wait 1 minute and read photo counts (i.e., luminescence) on a Monolight 2010 luminometer available from Analytical Luminescence Laboratories, San Diego.
Background--no test compound present; no PMA present;
Control--no test compound present;
Calculate: [formula] where L is luminescence. 6.

[5] = tested on: PMA-Induced Inflammation in Ears of CD-1 Mice; test: PMA-induced inflammation in mouse ears; assay type: in vivo, mouse (CD-1); conditions: 6 hours
Method: A common in vivo model for the evaluation of anti-inflammatory agents is PMA-induced inflammation in mouse ears. This method is described in "Pharmacological Methods in the Control of Inflammation", Joseph Y. Chang and Alan J. Lewis (eds), Alan R. Liss, Inc., N.Y., pp 221-223. In this assay, edema, which is a characteristic of inflammation, is quantified by determining ear thickness or ear weight approximately 6 hours after applying PMA to the ear.
1. Mice: Male CD-1, 21-24 g (Product Number 3002) obtainable from Harlan Sprague Dawley, Indianapolis, Ind., USA;
a. Prepare 0.01% (w/v) PMA in a mixture of equal volumes of acetone and ethanol;
b. Prepare 0.01% (w/v) PMA and 5% (w/v) test compound in a mixture of equal volumes of acetone and ethanol;
c. Divide 9 mice into 3 groups of 3 mice each;
d. Leave one group of mice untreated;
e. Treat the second group of mice by applying 20 μL of PMA solution to both ears using a micropipetter;
f. Treat the third group of mice by applying 20 μL of PMA solution to the right ear and 20 μL of PMA/test compound solution to the left ear;
g. Wait 6 hours and euthanize the mice in a CO2 chamber;
h. Cut the ears and punch out circles of 6-mm diameter; and
I. Measure the weight of three appropriate ear punches in the same group together.

[6] = Mus musculus, RAW264.7, read-out: % Inhibition of Respiratory Burst

Row | Structure (SMILES) | inhibition of MDA-MB-231 cell growth [1] | inhibition of HT-29 cell growth [2] | inhibition of keratinocyte proliferation [3] | inhibition at 1 µM ([4]; RAW264.7, Concentration 1 μM, PMA-Stimulated Mouse Macrophages, read-out: % Inhibition of Respiratory Burst) [%] | inhibition at 3 µM ([4]; RAW264.7, Concentration 3 μM, PMA-Stimulated Mouse Macrophages, read-out: % Inhibition of Respiratory Burst) [%] | inhibition at 10 µM ([4]; RAW264.7, Concentration 10 μM, PMA-Stimulated Mouse Macrophages, read-out: % Inhibition of Respiratory Burst) [%] | inhibition at 30 µM ([4]; RAW264.7, Concentration 30 μM, PMA-Stimulated Mouse Macrophages, read-out: % Inhibition of Respiratory Burst) [%] | inhibition of luminescence ([4]; at concentrations above 1 μM, PMA-stimulated) | Average Weight of Punched Ear, left ear ([5]; CPR 2005 + PMA (left ear), PMA (right ear, 30 mg), PMA both ears: left 34, right 28, untreated 12, 20 μL of 0.01% PMA / 5% (w/v) test compound) [mg] | inhibition of PMA-induced inflammation in mouse ear ([5]; topical, 5% (w/v) test compound) | inhibition at 1 µM [4, 6] [%] | inhibition at 3 µM [4, 6] [%] | inhibition at 10 µM [4, 6] [%] | inhibition at 30 µM [4, 6] [%]
1 | C=C1CC[C@H](OP(=O)([O-])OCC[N+](C)(C)C)C/C1=C/C=C1\CCC[C@]2(C)[C@@H]([C@H](C)CCCC(C)C)CC[C@@H]12 [CPR 2005, (5Z,7E)-(3S)-9,10-Secocholesta-5,7,10(19)-trien-3-phosphocholine] | marked inhibition | marked inhibition | marked inhibition | 45 | 90 | 98 | 99 | marked inhibition | 15 | marked inhibition |  |  |  | 
2 | C=C1CC[C@H](O)C/C1=C/C=C1\CCC[C@]2(C)[C@@H]([C@H](C)CCCC(C)C)CC[C@@H]12 [Vitamin D3, 9, 10-secocholesta-5,7,10(19)-trien-3-ol, reference compound] |  |  |  |  |  |  |  |  |  |  | 10 | 9 | 2 | 12
